Bounds are passed on as bounds.

The values that follow come from patent US11124537B2, “Inhibitors of glucocorticoid receptor” (ORIC Pharmaceuticals, Inc., priority 2015, dated 2021).

This experiment addresses GR (Homo sapiens (Human), UniProt P04150). Briefly: In Vitro GR Luciferase Reporter Assay. The settings on record: CHO-K1-GR-MMTV-Luc reporter cells, antagonist assay, 10 nM Dexamethasone, 18-24 hours. It is filed as cell-based. An excerpt:
Example 4: In Vitro GR Luciferase Reporter Assay
Cell Line: CHO-K1-GR-MMTV-Luc reporter cells
Culture Media: DMEM (with phenol red)+10% FBS
Assay Media: DMEM (without phenol red)+10% CSS
Culture CHO-K1-GR-MMTV-Luc reporter cells in 15 cm plates in Culture Media at conditions less than 90% confluence.
Prepare 200×DMSO 1:5 serial dilutions of control and test compounds in 96-well non-sterile V bottom plate in DMSO, 8 serial dilutions for each compound.
Prepare 5× Assay Media diluted compound serial dilutions in 96-well non-sterile V bottom plate: Add 97.5 uL/well of Assay Media into 96-well then add 2.5 ul of 200× concentration of compounds and mix well.
Seed cells for Antagonist Assay: […] CHO-K1-GR-MMTV-Luc reporter cells were seeded in a Corning 3707 flat clear bottom 384-well white TC plate in 20 ul of Assay Media containing 12.5 nM Dexamethasone (final concentration=10 nM).
Add compounds: 5 ul of assay media diluted compounds were added to appropriate wells and followed a quick spin (1000 rpm, 10 sec) to bring media and cells to the bottom of plate. The plates were covered with SealMate film to avoid evaporation and placed in 37° C. incubator for approximately 18-24 hours.
Read plates: Equilibrate appropriate amount of Promega OneGlo luciferase reagent to room temperature. Remove the plates from incubator and add 25 uL of OneGlo reagent/well by multiple channel pipette and read the plates with Tecan F500 luminometer within 3 minutes.
The ability of the compounds disclosed herein to inhibit GR activity was quantified and the respective IC50 value was determined. Table 3 provides the cellular IC50 values of various substituted steroidal compounds disclosed herein.

GR, sequence (P04150 whole entry): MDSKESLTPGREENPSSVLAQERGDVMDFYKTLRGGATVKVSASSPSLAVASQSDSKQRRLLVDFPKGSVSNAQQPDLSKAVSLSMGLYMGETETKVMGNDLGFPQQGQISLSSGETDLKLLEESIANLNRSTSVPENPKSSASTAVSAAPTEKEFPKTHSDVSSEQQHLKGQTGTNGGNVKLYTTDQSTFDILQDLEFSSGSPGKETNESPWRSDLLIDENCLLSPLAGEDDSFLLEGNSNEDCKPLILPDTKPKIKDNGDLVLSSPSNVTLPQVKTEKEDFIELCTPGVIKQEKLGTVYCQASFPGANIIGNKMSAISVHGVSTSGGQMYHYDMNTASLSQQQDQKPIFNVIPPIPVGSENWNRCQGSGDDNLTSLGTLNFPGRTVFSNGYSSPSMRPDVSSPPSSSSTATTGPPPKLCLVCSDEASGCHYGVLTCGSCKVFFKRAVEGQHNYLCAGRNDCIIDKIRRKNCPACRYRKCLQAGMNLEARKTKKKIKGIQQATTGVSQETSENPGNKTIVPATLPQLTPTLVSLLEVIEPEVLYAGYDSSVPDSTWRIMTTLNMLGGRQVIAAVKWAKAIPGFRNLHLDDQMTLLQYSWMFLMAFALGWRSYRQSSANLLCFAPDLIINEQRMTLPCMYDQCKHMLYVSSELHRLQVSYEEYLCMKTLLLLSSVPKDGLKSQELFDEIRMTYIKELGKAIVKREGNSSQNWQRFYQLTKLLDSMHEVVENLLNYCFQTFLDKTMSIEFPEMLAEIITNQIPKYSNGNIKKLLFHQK

In the case of `CC(C)C#C[C@]1(O)CC[C@H]2[C@@H]3CCC4=CC(=O)CCC4=C3[C@@H](c3cc(F)c(N(C)C)cc3F)C[C@@]21C`, the IC50 is not above 100 nM. Next, `CN(C)c1cc(F)c([C@H]2C[C@@]3(C)[C@@H](CC[C@@]3(O)C#CC(C)(C)C)[C@@H]3CCC4=CC(=O)CCC4=C32)c(F)c1`: not above 100 nM; `CC(C)(C)C#C[C@]1(O)CC[C@H]2[C@@H]3CCC4=CC(=O)CCC4=C3[C@@H](c3ccc(N4CCN(S(C)(=O)=O)CC4)cc3)C[C@@]21C` [drawing 346]: not above 100 nM; `CN(C)c1ccc([C@H]2C[C@@]3(C)[C@@H](CC[C@@]3(O)C#CC3(C)COC3)[C@@H]3CCC4=CC(=O)CCC4=C32)cc1` [drawing 354]: not above 100 nM.

In turn, `CC(C)(C)C#C[C@]1(O)CC[C@H]2[C@@H]3CCC4=CC(=O)CCC4=C3[C@@H](c3ccc(N4CCC[C@@H]4CO)cc3)C[C@@]21C` [drawing 364] registered an IC50 not above 100 nM.

As to `CCN(C)c1cc(F)c([C@H]2C[C@@]3(C)[C@@H](CC[C@@]3(O)C#CC3CC3)[C@@H]3CCC4=CC(=O)CCC4=C32)c(F)c1`, the IC50 is not above 100 nM. Turning to `C[C@]12C[C@H](c3ccc4c(c3)OCCO4)C3=C4CCC(=O)C=C4CC[C@H]3[C@@H]1CC[C@@]2(O)C#CC(F)(F)F`, the IC50 was not above 100 nM. Under `CN(C)c1c(F)cc([C@H]2C[C@@]3(C)[C@@H](CC[C@@]3(O)C#CC3CC3)[C@@H]3CCC4=CC(=O)CCC4=C32)cc1F` stands not above 100 nM; under `C[C@]12C[C@H](c3ccc4c(c3)OCO4)C3=C4CCC(=O)C=C4CC[C@H]3[C@@H]1CC[C@@]2(O)C#CC1CC1`, not above 100 nM; under `CC(C)(C)C#C[C@]1(O)CC[C@H]2[C@@H]3CCC4=CC(=O)CCC4=C3[C@@H](c3ccc(C(C)(CO)CO)cc3)C[C@@]21C`, not above 100 nM. For the compound `COC(C)(C)C#C[C@]1(O)CC[C@H]2[C@@H]3CCC4=CC(=O)CCC4=C3[C@@H](c3ccc(N(C)C)cc3)C[C@@]21C`, the IC50 is not above 100 nM. Under `COC(C)(C)C#C[C@]1(O)CC[C@H]2[C@@H]3CCC4=CC(=O)CCC4=C3[C@@H](c3ccc(N(C)CC(F)(F)F)cc3)C[C@@]21C` stands not above 100 nM; under `Cc1ccc([C@H]2C[C@@]3(C)[C@@H](CC[C@@]3(O)C#CC(F)(F)F)[C@@H]3CCC4=CC(=O)CCC4=C32)cc1F`, more than 100 nM; under `CC(C)N(C)c1ccc([C@H]2C[C@@]3(C)[C@@H](CC[C@@]3(O)C#CC(C)(C)C)[C@@H]3CCC4=CC(=O)CCC4=C32)cc1`, not above 100 nM. For the compound `CC(C)(C)C#C[C@]1(O)CC[C@H]2[C@@H]3CCC4=CC(=O)CCC4=C3[C@@H](c3ccc(C4CC4)cc3)C[C@@]21C`, the IC50 was not above 100 nM.

On to `Cc1c(F)cc([C@H]2C[C@@]3(C)[C@@H](CC[C@@]3(O)C#Cc3ccccn3)[C@@H]3CCC4=CC(=O)CCC4=C32)cc1F`, for which the IC50 was more than 100 nM.

`COC1CN(c2ccc([C@H]3C[C@@]4(C)[C@@H](CC[C@@]4(O)C#CC(C)(C)C)[C@@H]4CCC5=CC(=O)CCC5=C43)cc2)C1` [drawing 341] had an IC50 not above 100 nM. Under `Cc1ccc([C@H]2C[C@@]3(C)[C@@H](CC[C@@]3(O)C#CC(C)(C)C)[C@@H]3CCC4=CC(=O)CCC4=C32)cc1C` stands not above 100 nM; under `C[C@]12C[C@H](c3ccc4c(c3)OCO4)C3=C4CCC(=O)C=C4CC[C@H]3[C@@H]1CC[C@@]2(O)C#Cc1ccc(S(C)(=O)=O)cc1`, not above 100 nM; under `CC(C)(C)C#C[C@]1(O)CC[C@H]2[C@@H]3CCC4=CC(=O)CCC4=C3[C@@H](c3ccc(NCC4CC4)cc3)C[C@@]21C`, not above 100 nM.

As to `Cc1c(F)cc([C@H]2C[C@@]3(C)[C@@H](CC[C@@]3(O)C#CC(C)C)[C@@H]3CCC4=CC(=O)CCC4=C32)cc1F`, the IC50 was not above 100 nM.

Consider `CCc1cc(F)c([C@H]2C[C@@]3(C)[C@@H](CC[C@@]3(O)C#CC(C)C)[C@@H]3CCC4=CC(=O)CCC4=C32)c(F)c1`, for which the IC50 was not above 100 nM.

In turn, `CN(CC1CC1)c1ccc([C@H]2C[C@@]3(C)[C@@H](CC[C@@]3(O)C#CC(C)(C)C)[C@@H]3CCC4=CC(=O)CCC4=C32)cc1` had an IC50 of more than 100 nM. `CCc1ccc([C@H]2C[C@@]3(C)[C@@H](CC[C@@]3(O)C#CC(C)(C)C)[C@@H]3CCC4=CC(=O)CCC4=C32)cc1`: the IC50 was not above 100 nM. In turn, `CC(C)(C)C#C[C@]1(O)CC[C@H]2[C@@H]3CCC4=CC(=O)CCC4=C3[C@@H](c3ccc(N4CCN(C(=O)CO)CC4)cc3)C[C@@]21C` registered an IC50 not above 100 nM. Next, `CC(C)C#C[C@]1(O)CC[C@H]2[C@@H]3CCC4=CC(=O)CCC4=C3[C@@H](c3ccc4c(c3)OCO4)C[C@@]21C`: not above 100 nM; `C[C@]12C[C@H](c3ccc4c(c3)OCCO4)C3=C4CCC(=O)C=C4CC[C@H]3[C@@H]1CC[C@@]2(O)C#CC1CC1`: not above 100 nM; `Cc1ccc([C@H]2C[C@@]3(C)[C@@H](CC[C@@]3(O)C#CC(C)C)[C@@H]3CCC4=CC(=O)CCC4=C32)cc1F`: not above 100 nM.

`CC(C)C#C[C@]1(O)CC[C@H]2[C@@H]3CCC4=CC(=O)CCC4=C3[C@@H](c3c(F)cc(N(C)C)cc3F)C[C@@]21C`: the IC50 is not above 100 nM. Next, `CN(C)c1ccc([C@H]2C[C@@]3(C)[C@@H](CC[C@@]3(O)C#Cc3ccc(C#N)cc3)[C@@H]3CCC4=CC(=O)CCC4=C32)cc1`: not above 100 nM; `Cc1cc([C@H]2C[C@@]3(C)[C@@H](CC[C@@]3(O)C#CC(C)(C)C)[C@@H]3CCC4=CC(=O)CCC4=C32)ccc1N(C)C` [drawing 283]: not above 100 nM. Next, `CN(C)c1ccc([C@H]2C[C@@]3(C)[C@@H](CC[C@@]3(O)C#CC(C)(C)C)[C@@H]3CCC4=CC(=O)CCC4=C32)cc1`: not above 100 nM; `CCN(CC)c1cc(F)c([C@H]2C[C@@]3(C)[C@@H](CC[C@@]3(O)C#CC(C)C)[C@@H]3CCC4=CC(=O)CCC4=C32)c(F)c1`: not above 100 nM; `CCc1ccc([C@H]2C[C@@]3(C)[C@@H](CC[C@@]3(O)C#Cc3ccccc3)[C@@H]3CCC4=CC(=O)CCC4=C32)cc1`: not above 100 nM. On to `CC(C)Oc1ccc([C@H]2C[C@@]3(C)[C@@H](CC[C@@]3(O)C#CC(C)(C)C)[C@@H]3CCC4=CC(=O)CCC4=C32)cc1`, for which the IC50 was not above 100 nM. Next, `Cc1ccc([C@H]2C[C@@]3(C)[C@@H](CC[C@@]3(O)C#CC3CC3)[C@@H]3CCC4=CC(=O)CCC4=C32)cc1F`: not above 100 nM; `CCN(C)c1cc(F)c([C@H]2C[C@@]3(C)[C@@H](CC[C@@]3(O)C#CC(C)C)[C@@H]3CCC4=CC(=O)CCC4=C32)c(F)c1`: not above 100 nM. Regarding `CN(C)c1ccc([C@H]2C[C@@]3(C)[C@@H](CC[C@@]3(O)C#Cc3ccc(Cl)cc3)[C@@H]3CCC4=CC(=O)CCC4=C32)cc1`, the IC50 was not above 100 nM.

Regarding `CC(C)(C)C#C[C@]1(O)CC[C@H]2[C@@H]3CCC4=CC(=O)CCC4=C3[C@@H](c3cc(F)c(-c4ccncc4)cc3F)C[C@@]21C`, the IC50 was not above 100 nM. As for `CN(C)c1cc(F)c([C@H]2C[C@@]3(C)[C@@H](CC[C@@]3(O)C#CC(C)(C)C)[C@@H]3CCC4=CC(=O)CCC4=C32)cc1F` [drawing 304], the IC50 was not above 100 nM.
